According to ChEMBL document CHEMBL1177792, “Pre-clinical characterization of aryloxypyridine amides as histamine H3 receptor antagonists: identification of candidates for clinical development” (Bioorg Med Chem Lett, 2010):

Assays:
[1] = target: T1, Histamine H3 receptor (Homo sapiens, UniProt Q9Y5N1); experiment: Displacement of [125I]-iodoproxyfan from human recombinant histamine H3 receptor expressed in human SK-N-MC cells after 1 hr by scintillation counting; assay type: cell-based
[2] = target: T1, Histamine H3 receptor; experiment: Antagonist activity at human histamine H3 receptor expressed in human SK-N-MC cells assessed as inhibition of forskolin-induced cAMP accumulation after 6 hrs; assay type: functional, cell-based; settings: read-out: pA2 (converted)
[3] = Metabolic stability in rat liver microsomes assessed as compound remaining after 30 mins; assay type: ADME, Microsome; settings: read-out: Stability
[4] = Metabolic stability in human liver microsomes assessed as compound remaining after 30 mins; assay type: ADME, Microsome; settings: read-out: Stability
[5] = target: T2, Histamine H3 receptor (Rattus norvegicus, UniProt Q9QYN8); experiment: Antagonist activity at rat histamine H3 receptor expressed in human SK-N-MC cells assessed as inhibition of forskolin-induced cAMP accumulation after 6 hrs; assay type: functional, cell-based; settings: read-out: pA2 (converted)
[6] = target: T2, Histamine H3 receptor; experiment: Binding affinity to histamine H3 receptor in rat brain; assay type: tissue-based
[7] = Plasma concentration in Wistar rat at 10 mg/kg, po after 1 hr; assay type: ADME, organism-based; design: dose 10 mg/kg, route oral; settings: read-out: Drug uptake
[8] = Drug level in Wistar rat brain at 10 mg/kg, po after 1 hr; assay type: ADME, organism-based; design: dose 10 mg/kg, route oral; settings: read-out: Drug uptake
[9] = Bioavailability in Sprague-Dawley rat at 1 mg/kg, iv and 10 mg/kg, po; assay type: ADME, organism-based; settings: in vivo
[10] = tested on: Rattus norvegicus; experiment: Ex vivo receptor occupancy of histamine H3 receptor in Wistar rat brain at 10 mg/kg, po after 1 hr by autoradiography; assay type: functional
[11] = target: T3, Voltage-gated inwardly rectifying potassium channel KCNH2 (Homo sapiens, UniProt Q12809); experiment: Inhibition of human ERG by patch clamp technique
[12] = Clearance in Sprague-Dawley rat at 1 mg/kg, iv and 10 mg/kg, po; assay type: ADME, organism-based; settings: in vivo
[13] = Half life in Sprague-Dawley rat at 1 mg/kg, iv and 10 mg/kg, po; assay type: ADME, organism-based; settings: in vivo
[14] = target: hERG (KCNH2) (Homo sapiens, UniProt Q12809); experiment: Displacement of radiolabeled astemizole from human ERG at 10 uM; settings: probe radiolabeled astemizole
[15] = target: T3, Voltage-gated inwardly rectifying potassium channel KCNH2; experiment: Displacement of radiolabeled astemizole from human ERG
[16] = Volume of distribution at steady state in Sprague-Dawley rat at 1 mg/kg, iv and 10 mg/kg, po; assay type: ADME, organism-based; settings: in vivo, read-out: Vdss
[17] = Volume of distribution at steady state in Beagle dog at 1 mg/kg, iv and 5 mg/kg, po; assay type: ADME, organism-based, Canis lupus familiaris; settings: in vivo, read-out: Vdss
[18] = Bioavailability in Beagle dog at 1 mg/kg, iv and 5 mg/kg, po; assay type: ADME, organism-based, Canis lupus familiaris; settings: in vivo
[19] = Clearance in Beagle dog at 1 mg/kg, iv and 5 mg/kg, po; assay type: ADME, organism-based, Canis lupus familiaris; settings: in vivo
[20] = Half life in Beagle dog at 1 mg/kg, iv and 5 mg/kg, po; assay type: ADME, organism-based, Canis lupus familiaris; settings: in vivo

hERG (KCNH2), sequence (Q12809 whole entry): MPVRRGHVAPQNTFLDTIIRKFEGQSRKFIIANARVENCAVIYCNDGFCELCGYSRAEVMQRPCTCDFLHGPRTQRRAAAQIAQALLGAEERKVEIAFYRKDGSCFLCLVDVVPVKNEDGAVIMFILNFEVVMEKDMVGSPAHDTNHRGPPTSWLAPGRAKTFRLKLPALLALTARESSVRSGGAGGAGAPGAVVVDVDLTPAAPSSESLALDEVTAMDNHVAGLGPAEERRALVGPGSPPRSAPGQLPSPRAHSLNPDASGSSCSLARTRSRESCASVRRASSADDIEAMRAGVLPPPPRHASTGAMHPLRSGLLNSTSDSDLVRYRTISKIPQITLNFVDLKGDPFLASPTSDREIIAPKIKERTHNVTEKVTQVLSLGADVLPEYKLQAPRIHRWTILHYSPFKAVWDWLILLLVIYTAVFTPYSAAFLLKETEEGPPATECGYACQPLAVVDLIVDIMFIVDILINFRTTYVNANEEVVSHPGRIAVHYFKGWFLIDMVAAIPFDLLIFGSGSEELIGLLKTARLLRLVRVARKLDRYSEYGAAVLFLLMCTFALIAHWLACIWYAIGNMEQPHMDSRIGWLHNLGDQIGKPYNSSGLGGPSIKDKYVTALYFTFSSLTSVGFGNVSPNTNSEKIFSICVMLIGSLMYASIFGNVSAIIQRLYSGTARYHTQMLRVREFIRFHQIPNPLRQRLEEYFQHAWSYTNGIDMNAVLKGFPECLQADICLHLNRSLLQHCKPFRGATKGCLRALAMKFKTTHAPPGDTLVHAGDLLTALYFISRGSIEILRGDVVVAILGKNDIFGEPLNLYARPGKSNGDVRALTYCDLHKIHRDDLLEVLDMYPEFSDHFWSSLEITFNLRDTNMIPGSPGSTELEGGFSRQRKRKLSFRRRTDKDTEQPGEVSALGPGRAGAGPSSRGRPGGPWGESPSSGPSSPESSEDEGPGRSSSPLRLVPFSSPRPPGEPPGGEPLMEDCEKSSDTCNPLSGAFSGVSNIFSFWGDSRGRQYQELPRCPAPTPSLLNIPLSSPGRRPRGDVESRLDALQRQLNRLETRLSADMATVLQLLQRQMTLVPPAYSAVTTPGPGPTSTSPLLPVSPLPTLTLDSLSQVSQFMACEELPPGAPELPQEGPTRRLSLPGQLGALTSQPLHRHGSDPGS
T3 sequence (Q12809 whole entry): as above
T1 sequence (Q9Y5N1 whole entry): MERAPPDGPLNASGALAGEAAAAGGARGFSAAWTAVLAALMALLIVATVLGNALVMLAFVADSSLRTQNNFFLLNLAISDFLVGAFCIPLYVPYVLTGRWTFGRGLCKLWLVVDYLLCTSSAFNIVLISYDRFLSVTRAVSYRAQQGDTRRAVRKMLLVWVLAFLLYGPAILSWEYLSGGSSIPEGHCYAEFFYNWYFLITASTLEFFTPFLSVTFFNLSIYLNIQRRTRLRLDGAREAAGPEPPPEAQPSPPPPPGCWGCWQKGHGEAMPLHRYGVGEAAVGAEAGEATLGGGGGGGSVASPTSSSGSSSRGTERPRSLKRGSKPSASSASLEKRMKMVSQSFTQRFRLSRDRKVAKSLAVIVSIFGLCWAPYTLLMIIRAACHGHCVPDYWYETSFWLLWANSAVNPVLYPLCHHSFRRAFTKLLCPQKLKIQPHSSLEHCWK
T2 sequence (Q9QYN8 whole entry): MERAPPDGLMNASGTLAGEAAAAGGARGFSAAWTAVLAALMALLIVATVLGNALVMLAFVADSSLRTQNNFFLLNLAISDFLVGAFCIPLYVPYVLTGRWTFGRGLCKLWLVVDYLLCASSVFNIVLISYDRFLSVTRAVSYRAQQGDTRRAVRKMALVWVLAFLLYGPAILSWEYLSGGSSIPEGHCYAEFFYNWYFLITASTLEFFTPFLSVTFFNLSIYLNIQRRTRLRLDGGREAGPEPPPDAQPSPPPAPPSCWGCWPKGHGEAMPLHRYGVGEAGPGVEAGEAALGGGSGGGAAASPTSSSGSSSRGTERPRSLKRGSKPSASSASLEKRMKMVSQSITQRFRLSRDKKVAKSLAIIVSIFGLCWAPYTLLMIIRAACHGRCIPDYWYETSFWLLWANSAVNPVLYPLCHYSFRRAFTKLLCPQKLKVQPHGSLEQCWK

O=C(c1ccc(Oc2ccc(F)cc2)nc1)N1CCN(C2CC2)CC1
Ki [1]: 430 nM

O=C(c1ccc(Oc2cccc(Cl)c2)cn1)N1CCCN(C2CCC2)CC1
Ki [1]: 4.7 nM

O=C(c1ccc(Oc2ccc(F)cc2)nc1)N1CCCN(C2CC2)CC1
Ki [1]: 25 nM
Kb [2]: 1.58 nM

O=C(c1cc(Oc2ccccc2)ccn1)N1CCCN(C2CCC2)CC1
Ki [1]: 41 nM

O=C(c1cncc(Oc2ccc(F)cc2)c1)N1CCCN(C2CCC2)CC1
Ki [1]: 17 nM

CN1CCCN(C(=O)c2ccc(Oc3ccc(F)cc3)nc2)CC1
Ki [1]: 860 nM

CC(C)N1CCN(C(=O)c2ccc(Oc3cccc(C#N)c3)nc2)CC1
Ki [1]: 110 nM

O=C(c1ccc(Oc2ccccc2Cl)nc1)N1CCCN(C2CCC2)CC1
Ki [1]: 17 nM

CC(C)N1CCN(C(=O)c2ccc(Oc3ccccc3)nc2)CC1
Ki [1]: 260 nM

O=C(c1ccc(Oc2ccccc2)nc1)N1CCCN(C2CC2)CC1
Ki [1]: 10 nM

CSc1ccc(Oc2ccc(C(=O)N3CCN(C(C)C)CC3)cn2)cc1
Ki [1]: 230 nM

O=C(c1ccc(Sc2ccccc2)cn1)N1CCCN(C2CCC2)CC1
Ki [1]: 3.7 nM

O=C(c1ccc(Oc2cccc(Cl)c2)nc1)N1CCCN(C2CC2)CC1
remaining at 0.5 h [3]: 41%
Ki [1]: 17 nM
remaining at 0.5 h [4]: 70%
Kb [5]: 11.5 nM
Ki [6]: 75 nM
concentration at 1 h [7]: 310 nM
concentration at 1 h [8]: 300 nM

O=C(c1cccc(Oc2ccc(Cl)c(Cl)c2)n1)N1CCCN(C2CCC2)CC1
Ki [1]: 160 nM

O=C(c1cccc(Oc2ccc(Cl)c(Cl)c2)n1)N1CCCN(C2CC2)CC1
Ki [1]: 1040 nM

CC(C)N1CCN(C(=O)c2ccc(Oc3ccc(Cl)c(Cl)c3)nc2)CC1
Ki [1]: 78 nM

O=C(c1ccc(Oc2ccc(Cl)cc2)nc1)N1CCCN(C2CCC2)CC1
bioavailability [9]: 62%
remaining at 0.5 h [3]: 63%
Ki [1]: 59 nM
Activity [10]: 95%
remaining at 0.5 h [4]: 95%
IC50 [11]: 1400 nM
clearance [12]: 36 mL/min/kg
Kb [5]: 3.98 nM
Ki [6]: 23 nM
half-life [13]: 1.3 h
inhibition at 10 µM [14]: 23%
concentration at 1 h [7]: 4470 nM
IC50 [15]: > 10000 nM
Vd [16]: 3 L/kg
concentration at 1 h [8]: 2620 nM

O=C(c1ccc(Oc2cccc(F)c2)nc1)N1CCCN(C2CC2)CC1
Ki [1]: 16 nM

O=C(c1ccc(Oc2ccc(Cl)cc2)nc1)N1CCCN(C2CC2)CC1
Ki [1]: 13 nM

CC(C)N1CCN(C(=O)c2ccc(Oc3ccc(Cl)cc3)nc2)CC1
Ki [1]: 73 nM

O=C(c1ccc(Oc2cccc(F)c2)nc1)N1CCCN(C2CCC2)CC1
bioavailability [9]: 11%
remaining at 0.5 h [3]: 86%
Ki [1]: 4.1 nM
Activity [10]: 88%
remaining at 0.5 h [4]: 99%
IC50 [11]: 5400 nM
clearance [12]: 118 mL/min/kg
half-life [13]: 0.8 h
inhibition at 10 µM [14]: 0%
concentration at 1 h [7]: 360 nM
IC50 [15]: > 10000 nM
Vd [16]: 4.2 L/kg
concentration at 1 h [8]: 1960 nM

O=C(c1ccc(Sc2ccccc2)nc1)N1CCCN(C2CCC2)CC1
Ki [1]: 2.3 nM

CCN1CCCN(C(=O)c2ccc(Oc3ccc(F)cc3)nc2)CC1
Ki [1]: 34 nM

CC(C)N1CCCN(C(=O)c2ccc(Oc3ccc(Cl)c(Cl)c3)nc2)CC1
Ki [1]: 18 nM

CC(C)N1CCN(C(=O)c2ccc(Oc3ccccc3Cl)nc2)CC1
Ki [1]: 31 nM

O=C(c1ccc(Oc2ccccc2Cl)nc1)N1CCN(C2CCCC2)CC1
Ki [1]: 40 nM

N#Cc1cccc(Oc2ccc(C(=O)N3CCCN(C4CC4)CC3)cn2)c1
Ki [1]: 12 nM

O=C(c1ccc(Sc2ccc(F)cc2)cn1)N1CCCN(C2CCC2)CC1
remaining at 0.5 h [3]: 7%
Ki [1]: 4.6 nM
remaining at 0.5 h [4]: 82%
concentration at 1 h [7]: 30 nM
concentration at 1 h [8]: 120 nM

CC(C)N1CCCN(C(=O)c2ccc(Oc3ccc(Cl)c(Cl)c3)cn2)CC1
Ki [1]: 1.5 nM
Kb [2]: 0.309 nM

CC(C)N1CCN(C(=O)c2ccc(Oc3cccc(Cl)c3)nc2)CC1
Ki [1]: 100 nM

O=C(c1ccc(Sc2ccc(F)cc2)nc1)N1CCCN(C2CCC2)CC1
Ki [1]: 29 nM

O=C(c1ccc(Oc2ccccc2F)cn1)N1CCCN(C2CCC2)CC1
Ki [1]: 4.3 nM
Kb [2]: 0.537 nM

O=C(c1ccc(Oc2ccc(F)cc2)nc1)N1CCCNCC1
Ki [1]: 9000 nM

O=C(c1cc(Oc2ccc(F)cc2)ccn1)N1CCCN(C2CCC2)CC1
Ki [1]: 5.7 nM

O=C(c1ccc(Oc2ccc(F)cc2)cn1)N1CCCN(C2CCC2)CC1
bioavailability [9]: 23%
remaining at 0.5 h [3]: 56%
Vd [17]: 3.6 L/kg
Ki [1]: 2.9 nM
Activity [10]: 87%
remaining at 0.5 h [4]: 95%
clearance [12]: 80 mL/min/kg
bioavailability [18]: 14%
Kb [5]: 26.3 nM
clearance [19]: 35 mL/min/kg
Ki [6]: 24 nM
half-life [20]: 1.9 h
Kb [2]: 1.41 nM
half-life [13]: 1 h
concentration at 1 h [7]: 1020 nM
Vd [16]: 4.5 L/kg
concentration at 1 h [8]: 2370 nM

O=C(c1ccc(Oc2cccc(Cl)c2)nc1)N1CCCN(C2CCC2)CC1
bioavailability [9]: 19%
remaining at 0.5 h [3]: 58%
Activity [10]: 96%
remaining at 0.5 h [4]: 98%
IC50 [11]: 1600 nM
clearance [12]: 104 mL/min/kg
Kb [5]: 5.01 nM
Kb [2]: 0.871 nM
half-life [13]: 1 h
inhibition at 10 µM [14]: 28%
concentration at 1 h [7]: 630 nM
IC50 [15]: > 10000 nM
Vd [16]: 5 L/kg
concentration at 1 h [8]: 1720 nM

O=C(c1cncc(Oc2ccccc2)c1)N1CCCN(C2CCC2)CC1
Ki [1]: 11 nM

O=C(c1ccc(Oc2cccc(F)c2)cn1)N1CCCN(C2CCC2)CC1
Ki [1]: 5.5 nM

CC(C)N1CCN(C(=O)c2ccc(Oc3ccc(F)cc3)nc2)CC1
Ki [1]: 79 nM

O=C(c1ccc(Oc2ccc(Cl)cc2)cn1)N1CCCN(C2CCC2)CC1
Ki [1]: 5.5 nM

CC(C)N1CCCN(C(=O)c2cccc(Oc3ccc(Cl)c(Cl)c3)n2)CC1
Ki [1]: 430 nM

O=C(c1ccc(Oc2ccc(Cl)c(Cl)c2)nc1)N1CCCN(C2CCC2)CC1
remaining at 0.5 h [3]: 4%
Ki [1]: 7.6 nM
Activity [10]: 100%
remaining at 0.5 h [4]: 30%
concentration at 1 h [7]: 1520 nM
concentration at 1 h [8]: 4790 nM

O=C(c1ccc(Oc2ccc(Cl)c(Cl)c2)cn1)N1CCCN(C2CC2)CC1
Ki [1]: 10 nM

O=C(c1ccc(Oc2ccccc2)nc1)N1CCCN(C2CCC2)CC1
remaining at 0.5 h [3]: 90%
Ki [1]: 4.4 nM
remaining at 0.5 h [4]: 99%
Kb [5]: 3.72 nM
Ki [6]: 15 nM
Kb [2]: 0.269 nM
concentration at 1 h [7]: 210 nM
concentration at 1 h [8]: 300 nM
